Experiment: recombinant UMI read abundance after kanamycin selection (control-corrected) (log10(CPM+1)); higher = more efficient recombination; extreme values may be limits of the assay; sequences stand for … in AGTGCAGAGAAAATCGGCCAGTTTTCTCTGCCTGCAGTCCGCATGCCGTGGGACCCCTTGGGTTCTAACCTGTTGCCTAGATTTATGCAGCGGACTGCCTTTCTCCCAAAGTGATAAACCGG…AGGTTGGTTTCACT; site = the 11-nt donor
Summary of the method: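 Counts of recombinant UMIs were reported as log10(CPM+1). Before that, they were converted to CPM, averaged over replicates and scaled using control-derived factors. They came from PCR across the donor–target junction after Escherichia coli carrying the pair library and target plasmid was plated on IPTG (0.07 mM) plus kanamycin, or unselected, in two replicates each.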
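Further: IS621 bridge recombinase in Escherichia coli cells against a fixed T5 target plasmid.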

| Sequence | recombinant UMI read abundance (log10) |
| --- | --- |
| AACCGTCCATGGACCGGTTTTCCCGGTAATCCGTATTTGAT (site AACCGGCCTAT) | 0.00769 |
| CGCCCGACATGGACCGGTTTTCCCGGTAATCCGTATTTGCC (site CGCCCGACTGG) | 2.5 |
| CGGAATCCATGGACCGGTTTTCCCGGTAATCCGTATTTGTT (site GGTAATCCTAA) | 0 |
| CAAGGCACATGGACCGGTTTTCCCGGTAATCCGTATTTGGG (site CAAGTCACTCC) | 0.397 |
| CGTTAGTCATGGACCGGTTTTCCCGGTAATCCGTATTTGAG (site CGTTAGCCTCT) | 0.0076 |
| CGATCATCATGGACCGGTTTTCCCGGTAATCCGTATTTGCT (site CGATGATCTGG) | 0 |
| AACCGTCCATGGACCGGTTTTCCCGGTAATCCGTATTTGAT (site AACCGTCCTGT) | 0 |
| TAGGAAACATGGACCGGTTTTCCCGGTAATCCGTATTTGCG (site TAGGAATCTCG) | 1.75 |
| CAGTCGCCATGGACCGGTTTTCCCGGTAATCCGTATTTGGG (site CAGTCGTCTCC) | 0 |
| ATGTAGGCATGGACCGGTTTTCCCGGTAATCCGTATTTGGA (site ATGTAGGCTCC) | 0.209 |
| GAATCGCCATGGACCGGTTTTCCCGGTAATCCGTATTTGCA (site GAATGGCCTTG) | 0.345 |
| ACCCGAACATGGACCGGTTTTCCCGGTAATCCGTATTTGTC (site ACACGAACTGA) | 0 |
| CTATCCTCATGGACCGGTTTTCCCGGTAATCCGTATTTGAA (site CTATCCTCTTT) | 2.6 |
| GCCGGTCCATGGACCGGTTTTCCCGGTAATCCGTATTTGCA (site GCCGGTCCTTG) | 0 |
| TCTTCCGCATGGACCGGTTTTCCCGGTAATCCGTATTTGAT (site TCTTCCGCTAT) | 0.00526 |
| AGTAAGACATGGACCGGTTTTCCCGGTAATCCGTATTTGCC (site AGTAAGACTGG) | 2.13 |
| CGAGGACCATGGACCGGTTTTCCCGGTAATCCGTATTTGGA (site CGAGGACCTTC) | 0.0145 |
| AAGCTCACATGGACCGGTTTTCCCGGTAATCCGTATTTGAT (site CAGCTCACTAT) | 1.5 |
| GCTGCTGCATGGACCGGTTTTCCCGGTAATCCGTATTTGCC (site GCTCCTGCTGG) | 0 |
| AGGAATCCATGGACCGGTTTTCCCGGTAATCCGTATTTGTT (site CGGAATCCTAA) | 0.0029 |
| CGGAATCCATGGACCGGTTTTCCCGGTAATCCGTATTTGTT (site CGGAGTCCTGA) | 0 |
| GTAAGTTCATGGACCGGTTTTCCCGGTAATCCGTATTTGTC (site GTAAGTTCTGA) | 2.1 |
| CGAGGATCATGGACCGGTTTTCCCGGTAATCCGTATTTGGG (site CGAGGATCTCC) | 1.15 |
| AGCTTTTCATGGACCGGTTTTCCCGGTAATCCGTATTTGAC (site AGCTTTTCTGT) | 0.00446 |
| ACATCTACATGGACCGGTTTTCCCGGTAATCCGTATTTGGG (site ACATCTACTCA) | 0.0151 |

| Sequence | recombinant UMI read abundance (log10) |
| --- | --- |
| GACCTCACATGGACCGGTTTTCCCGGTAATCCGTATTTGAT (site GAGCTCACTAT) | 0 |
| TTAGGTACATGGACCGGTTTTCCCGGTAATCCGTATTTGAC (site GTAGGTACTGT) | 0 |
| AATGCAACATGGACCGGTTTTCCCGGTAATCCGTATTTGCT (site AATGCAACTAG) | 0.00461 |
| GGTACTGCATGGACCGGTTTTCCCGGTAATCCGTATTTGCC (site GCTACTGCTGG) | 0.662 |
| TACCGAACATGGACCGGTTTTCCCGGTAATCCGTATTTGGA (site TACCGAACTTC) | 0.277 |
| TCCAACGCATGGACCGGTTTTCCCGGTAATCCGTATTTGCG (site TCCAGCGCTCG) | 0 |
| ACGACTACATGGACCGGTTTTCCCGGTAATCCGTATTTGAC (site AGGACTACTGT) | 0.613 |
| CCGAATCCATGGACCGGTTTTCCCGGTAATCCGTATTTGTA (site CGGAATCCTAA) | 0.00532 |
| AAGCTCACATGGACCGGTTTTCCCGGTAATCCGTATTTGAT (site TAGCTCACTAT) | 1.55 |
| GCCTGGCCATGGACCGGTTTTCCCGGTAATCCGTATTTGCT (site GCCTGGCCTAG) | 0 |
| GTGCGTCCATGGACCGGTTTTCCCGGTAATCCGTATTTGTG (site GTGCGTCCTCA) | 0.0594 |
| GTAGTCGCATGGACCGGTTTTCCCGGTAATCCGTATTTGTG (site GTAGTCGCTCC) | 0.438 |
| CTCTAAACATGGACCGGTTTTCCCGGTAATCCGTATTTGCT (site CTCTATACTAG) | 0 |
| CCCTAGCCATGGACCGGTTTTCCCGGTAATCCGTATTTGGC (site CCCTAGCCTGG) | 0 |
| ATAGAGACATGGACCGGTTTTCCCGGTAATCCGTATTTGGT (site ATCGAGACTAC) | 0.671 |
| CGGGAGTCATGGACCGGTTTTCCCGGTAATCCGTATTTGCC (site CGGGAGACTGG) | 1.54 |
| AGTACTACATGGACCGGTTTTCCCGGTAATCCGTATTTGAC (site AGCACTACTGT) | 0 |
| TAATGAGCATGGACCGGTTTTCCCGGTAATCCGTATTTGGG (site TAATGAGCTAC) | 0.0203 |
| ACTACAACATGGACCGGTTTTCCCGGTAATCCGTATTTGAG (site ACTAGAACTCT) | 0.216 |
| AGTTCGACATGGACCGGTTTTCCCGGTAATCCGTATTTGAC (site AGTTCGACTGT) | 0.845 |
| CTTCTCTCATGGACCGGTTTTCCCGGTAATCCGTATTTGTT (site CTTCTCTCTAA) | 2.22 |
| AGCCTATCATGGACCGGTTTTCCCGGTAATCCGTATTTGTT (site AGCCTACCTAA) | 0.00813 |
| ACAAGTGCATGGACCGGTTTTCCCGGTAATCCGTATTTGGT (site ACAAGTGCTAC) | 2.04 |
| CTAGTAGCATGGACCGGTTTTCCCGGTAATCCGTATTTGCC (site CTAGTATCTGT) | 0 |
| CCCCACACATGGACCGGTTTTCCCGGTAATCCGTATTTGTA (site CTCCACACTTA) | 0.113 |

| Sequence | recombinant UMI read abundance (log10) |
| --- | --- |
| CGTTGGGCATGGACCGGTTTTCCCGGTAATCCGTATTTGCT (site CGTTTGGCTAG) | 0 |
| CCAGCTGCATGGACCGGTTTTCCCGGTAATCCGTATTTGCC (site CCAGCTGCTGG) | 1.26 |
| AGTTTCCCATGGACCGGTTTTCCCGGTAATCCGTATTTGTG (site AGATTCCCTCA) | 0.0216 |
| ACACGACCATGGACCGGTTTTCCCGGTAATCCGTATTTGTC (site ACACGATCTGA) | 1.22 |
| GGGAAGACATGGACCGGTTTTCCCGGTAATCCGTATTTGCT (site GGGAAGACTAG) | 1.69 |
| CACTCCTCATGGACCGGTTTTCCCGGTAATCCGTATTTGGC (site CACTCCTCTGT) | 2.45 |
| TGACCGGCATGGACCGGTTTTCCCGGTAATCCGTATTTGGC (site TGTCCGGCTGC) | 0 |
| TGCTCCCCATGGACCGGTTTTCCCGGTAATCCGTATTTGTA (site TGTTCCCCTTA) | 0.00224 |
| TTATACCCATGGACCGGTTTTCCCGGTAATCCGTATTTGAG (site TTATACCCTCT) | 0.00206 |
| GGCCCCCCATGGACCGGTTTTCCCGGTAATCCGTATTTGTT (site GGCCACCCTAA) | 0.0272 |
| ATGTTGGCATGGACCGGTTTTCCCGGTAATCCGTATTTGGC (site ATGTGGGCTGC) | 0.332 |
| CGTCTGGCATGGACCGGTTTTCCCGGTAATCCGTATTTGCT (site CGTTTGGCTAG) | 0 |
| AACTTGGCATGGACCGGTTTTCCCGGTAATCCGTATTTGGA (site TACTTGGCTTC) | 0.393 |
| CACAAAACATGGACCGGTTTTCCCGGTAATCCGTATTTGGC (site CACAAAACTGC) | 1.79 |
| GGTACGTCATGGACCGGTTTTCCCGGTAATCCGTATTTGAT (site GGTACGTCTAA) | 0.0132 |
| ATGCTACCATGGACCGGTTTTCCCGGTAATCCGTATTTGCT (site ATGCTACCTAG) | 0 |
| CTGTGCCCATGGACCGGTTTTCCCGGTAATCCGTATTTGAG (site CTGTGCCCTCT) | 0.0219 |
| ATAAGGGCATGGACCGGTTTTCCCGGTAATCCGTATTTGAC (site ATAAGGACTGT) | 2.61 |
| CCCCAGACATGGACCGGTTTTCCCGGTAATCCGTATTTGTA (site CCCCAGACTTA) | 0.691 |
| AGTGTAACATGGACCGGTTTTCCCGGTAATCCGTATTTGCT (site ACTGTAACTAG) | 1.47 |
| CGTAATCCATGGACCGGTTTTCCCGGTAATCCGTATTTGTT (site CGTAATCCTAA) | 0 |
| GCGAGCGCATGGACCGGTTTTCCCGGTAATCCGTATTTGTC (site GCGAGCGCTGA) | 2.69 |
| TAAATTCCATGGACCGGTTTTCCCGGTAATCCGTATTTGGG (site TAAATTCCTCC) | 0 |
| CGGTCAGCATGGACCGGTTTTCCCGGTAATCCGTATTTGCT (site CGATCATCTAG) | 0 |
| GACAAACCATGGACCGGTTTTCCCGGTAATCCGTATTTGGT (site GACGAACCTAC) | 0 |

Source: the supplement of paper PMC11208160
